Earlier results, collected in article PMC2920223 (Analytical chemistry, 2010).

Experiments:
[1] = test system: puromycin-sensitive aminopeptidases (PSA, NAP and NAP2); conditions: at 20 μM puromycin
[2] = test system: aminopeptidases (aminopeptidase N (APN), puromycin-sensitive aminopeptidase (PSA), NAP and NAP2); conditions: rat
[3] = exogenous YGGFM, rat striatal slices

COc1ccc(C[C@H](N)C(=O)N[C@H]2[C@@H](O)[C@H](n3cnc4c(N(C)C)ncnc43)O[C@@H]2CO)cc1 [puromycin]
inhibition of puromycin-sensitive aminopeptidases [1]: effectively inhibited

YGGFL
cleaved bond [2]: tyrosine-Gly

YGGFM
hydrolysis at Tyr-Gly as share of the total hydrolysis [3]: about 80%
